The text below walks through data of patent publication US10302660B2, “Methods useful for vitamin D deficiency and related disorders” (OPKO RENAL, LLC, priority 2008, dated 2019).

“Also recorded” adds a separate entry of the source.

The nature of experiment [1]: Vitamin D hormone status: 1,25-(OH)2-D3 level by mass spectrometry in adenine-fed rats. In kind it is in vivo. Conditions: versus control-fed animals (FIG. 3).
For experiment [2], the system named is parathyroid hormone (PTH). Put plainly: Serum intact PTH (iPTH Elisa Kit) in adenine-fed rats treated with vitamin D compounds. In kind it is in vivo. The following applies: treated for one week, versus control-fed animals (FIG. 2). From the text: To obtain an animal model of vitamin D deficiency, rats were fed an adenine-rich diet.
For another experiment, the system named is PTH. Put plainly: Serum PTH by ELISA in uremic rats treated with 1,25-dihydroxyvitamin D3. It is filed as in vivo, Sprague-Dawley rats. Conditions: 0.5 mcg/kg i.v. daily for 7 days (FIG. 12). As for the experimental part:
(§1) CYP24 and CYP27B1 expression was measured using the same protocol outlined above in Example 6 with respect to FIG. 11. Serum levels of 25(OH)D3 and 1,25-dihydroxyvitamin D3 were measured by LC-MS. Serum PTH was measured by ELISA IMMUTOPICS (San Clemente, Calif., USA) according to manufacturer's instructions. Briefly, serum samples were spiked with [26,27-^2H6] 25(OH)D3 or [25,26-^2H6] 1,25-dihydroxyvitamin D3 and dissolved in acetonitrile to serve as an internal standard. 1,25-dihydroxyvitamin D3 or 25(OH)D3 and internal standards were extracted from serum using Accubond II ODS-C18 100 mg, 1 mL SPE cartridges (Agilent Technologies). The collected fractions were evaporated to dryness under a steady stream of nitrogen gas and the residues reconstituted in 50 μL of methanol/H2O (80/20; v/v) and analyzed using LC-MS/MS (Waters Alliance HPLC—Waters Quattro Ultima mass spectrometer). Relative expression values are normalized to the vehicle-treated group (relative expression=1).

Experiment [3] has as its system CYP24. Put plainly: CYP24 gene expression by real-time PCR in normal and adenine-induced uremic rats dosed with 1,25-dihydroxyvitamin D3. In kind it is in vivo, Sprague-Dawley rats. On the procedure: Sprague-Dawley rats were treated i.v. daily with vehicle or 0.5 mcg/kg 1,25-dihydroxyvitamin D3 for 1 week. Organs were collected 24 hours after the last dosing. CYP24 gene expression was determined by real-time PCR.
Sprague-Dawley rats were fed a standard diet (normal) or a uremia-inducing diet containing 0.75% adenine (uremic) for 4 weeks. Animals were then dosed i.v. daily with vehicle or 0.5 mcg/kg 1,25-dihydroxyvitamin D3 for 7 days. Organs were collected 24 hours after the final dosing. CYP24 gene expression was determined by real-time PCR and normalized to GAPDH levels. Relative expression values are normalized to the vehicle-treated group (relative expression=1).
“*” denotes a significant difference in CYP24 expression between vehicle and 1,25-dihydroxyvitamin D3 treatment in normal and uremic rats. “**” represents a significant difference between vehicle-treated normal and uremic rats. “ ? ” denotes significant difference in CYP24 induction levels between normal and uremic rats treated with 1,25-dihydroxyvitamin D3. Significance was set at a p value cutoff of <0.05. Data are presented as mean±SEM. Numerals above each bar signifies relative fold induction to normal-vehicle.
as §1, with “Relative expression values are normalized to the vehicle-treated group (relative expression=1).” left out

The nature of experiment [4]: Serum 25(OH)D3 by LC-MS in uremic rats treated with 1,25-dihydroxyvitamin D3. Conditions: 0.5 mcg/kg i.v. daily for 7 days (FIG. 12). It is filed as in vivo, Sprague-Dawley rats. On the procedure: as §1
In experiment [5] the test system is CYP24. As to the kind of experiment: Kidney CYP24 mRNA (real-time PCR) in uremic (adenine) vitamin D deficient rats treated with 25-hydroxyvitamin D3. In kind it is in vivo, Sprague Dawley rats. The following applies: uremic vitamin D deficient rats after treatment; 0.6 or 18 mcg/kg daily for two weeks (FIG. 18). As for the experimental part: Sprague Dawley rats were fed either a normal diet (Adenine Vehicle group) or a vitamin D deficient diet (Vit. D def./Adenine Vehicle group) for a period of four weeks. Following this treatment, animals were orally administered, daily for two weeks, 100 mg of adenine. Animals were then injected daily for another two weeks with either 25-hydroxyvitamin D3 at 0.6 or 18 mcg/kg or vehicle as per the axis label in FIG. 18. Kidneys were collected 24 hours after the last injection and CYP24 mRNA levels were measured by real-time PCR.

Experiment [6] is described as follows: 1,25-dihydroxyvitamin D3 levels in vitamin D deficient uremic versus vitamin D deficient rats dosed with 25-hydroxyvitamin D. It is filed as in vivo. The following applies: after dosing for two weeks; vitamin D deficient uremic rats compared to vitamin D deficient animals (FIG. 19).
Experiment [7] concerns CYP24. As to the kind of experiment: Kidney CYP24 mRNA (real-time PCR) in vitamin D deficient rats treated with 25-hydroxyvitamin D3. In kind it is in vivo, Sprague Dawley rats. Conditions: vitamin D deficient animals after treatment; 0.6, 3 or 18 mcg/kg daily for two weeks (FIG. 17). On the procedure:
Sprague Dawley rats were fed either a normal diet or a vitamin D deficient diet for a period of four weeks. Animals were then injected daily for two weeks with either 25-hydroxyvitamin D3 at 0.6, 3, or 18 mcg/kg or vehicle as per the axis label in FIG. 17. Kidneys were collected 24 hours after the last injection and CYP24 mRNA levels were measured by real-time PCR.
Background: Quantitative PCR measures a nucleic acid by following its amplification.

The subject of experiment [8] is CYP24. Put plainly: CYP24 induction (real-time PCR) in HEK cells with 1,25-dihydroxyvitamin D3 alone or with CYP24 inhibitor. The following applies: 10 nM inhibitor with 10 nM 1,25-dihydroxyvitamin D3, 6, 24, 48 and 72 hours (FIG. 14). It is filed as cell-based. On the procedure: HEK cells were seeded at 25,000 cells per well (24-well plate) and incubated with 1,25-dihydroxyvitamin D3 (10 nM) alone or with a CYP24 inhibitor (MK-24(S)—S(O)(NH)-Ph-1, see U.S. Pat. No. 7,101,865, compound I(a)) (10 nM) for 6, 24, 48 and 72 hours. Cells were collected and RNA was prepared using TRIZOL® reagent. CYP24 was quantified using real-time PCR.

The next experiment relates to HEK cells. Put plainly: [3H]-thymidine incorporation in HEK cells, 1,25-dihydroxyvitamin D3 with CYP24 inhibitor. Conditions: cultured HEK cells, inhibitor at 0, 1, 10 and 50 nM (FIG. 15). It is filed as cell-based. On the procedure: HEK cells were transferred into 96-well plates at 2000 cells/well density. After 2 days of growth in 96-well plates the cells were treated with 1,25-dihydroxyvitamin D3 at the final concentrations 10^−6-10^−11 M in combination with the MK-24(S)—S(O)(NH)-Ph-1 compound with the varied final concentration of 0, 1, 10 and 50 nM. After overnight treatment [^3H]-thymidine was added to cells, […]/well in KGM media for 16 h. The radioactivity incorporation was counted using a scintillation counter after the addition of […] of scintillation fluid. The data were represented as an incorporation of thymidine in cpm depending on 1,25-dihydroxyvitamin D3 concentration. Each data point represents at least 4 independent trials.

Experiment [9] deals with CYP24. As to the kind of experiment: CYP24 RNA expression in HPK1a-ras cells, 1,25-dihydroxyvitamin D3 with or without FGF23. Conditions: 100 ng/mL FGF23 with 0, 1, 10, 100 nM calcitriol, after 8 hours (FIG. 16). It is filed as cell-based. As for the experimental part: HPK1a-ras cells were treated with 0, 1, 10, and 100 nM of 1,25-dihydroxyvitamin D3 (calcitriol), with or without 100 ng/mL of FGF23, and CYP24 RNA expression was measured after 8 hours.

In the case of `C=C1/C(=C\C=C2/CCC[C@]3(C)[C@@H]([C@H](C)/C=C/[C@H](C)C(C)(C)O)CC[C@@H]23)C[C@@H](O)C[C@@H]1O` [1,25-(OH)2-D2, 1,25-dihydroxyvitamin D2], the “1,25-(OH)2-D3 levels (vitamin D hormone status)” value (“1,25-(OH)2-D3 levels” for short) in [1] is on record as “did not significantly affect”. Besides, the iPTH level result in [2] is on record as “restored to a level similar to control-fed animals”.
As for `C=C1/C(=C\C=C2/CCC[C@]3(C)[C@@H]([C@H](C)CCCC(C)(C)O)CC[C@@H]23)C[C@@H](O)C[C@@H]1O` [1,25-(OH)2-D3, 1,25-dihydroxyvitamin D3], in [1], the “1,25-(OH)2-D3 levels” value is “restored to the level of control-fed animals”. Further, the PTH entry in the experiment on PTH is listed as “reduction”. The “induced expression of CYP24” value in the experiment with CYP24 [3] (parathyroid gland, uremic compared to normal animals, 0.5 mcg/kg i.v. daily for 7 days (FIG. 11)) is reported as “significantly induced; also recorded: markedly greater”. In addition, the CYP24 gene expression entry with CYP24 [3] (tissues from both normal and uremic rats, 0.5 mcg/kg i.v. daily) was “strongly induced”. In the experiment with CYP24 [3] (uremic rats, 0.5 mcg/kg i.v. daily for 7 days (FIG. 12)), the CYP24 expression entry was “drastically induces”. In experiment [2], the iPTH level result is given as “restored to a level similar to control-fed animals”. Also, the “serum 25-(OH)D3 levels” value in [4] is given as “reduction”.
On to `C=C1CC[C@H](O)C/C1=C/C=C1\CCC[C@]2(C)[C@@H]([C@H](C)CCCC(C)(C)O)CC[C@@H]12` [25-OH-D3, 25-hydroxyvitamin D3], for which the “1,25-(OH)2-D3 levels” value in experiment [1] is given as “did not significantly affect”. Moreover, the CYP24 levels entry with CYP24 [5] is “do not increase”; with CYP24 [7] it was “increase to normal or higher levels”. In experiment [6], the “levels of 1,25-dihydroxyvitamin D3” value is reported as “lower”. Further, the iPTH level entry in experiment [2] is given as “restored to a level similar to control-fed animals”.
On to `C=C1/C(=C\C=C2/CCC[C@]3(C)[C@@H]([C@H](C)CCC[S@](=N)(=O)c4ccccc4)CC[C@@H]23)C[C@@H](O)C[C@@H]1O` [MK-24(S)—S(O)(NH)-Ph-1, (5Z,7E)-(1S,3R)-24-(S)-phenylsulfoximine-25-nor-9,10-seco-5,7,10(19)-cholestatriene-1,3-diol], for which the “CYP24 induction by 1,25-dihydroxyvitamin D3 in the presence of CYP24 inhibitor” value in the experiment with CYP24 [8] was “markedly extended”. For the same molecule, in the experiment with HEK cells, the “enhancement of the anti-proliferative effects of 1,25-dihydroxyvitamin D3” value is recorded as “approximately 3 orders of magnitude”.

B1: FGF23: fibroblast growth factor-23 (protein, UniProt Q9GZV9 25-251, looked up)
Fibroblast growth factor 23: YPNASPLLGSSWGGLIHLYTATARNSYHLQIHKNGHVDGAPHQTIYSALMIRSEDAGFVVITGVMSRRYLCMDFRGNIFGSHYFDPENCRFQHQTLENGYDVYHSPQYHFLVSLGRAKRAFLPGMNPPPYSQFLSRRNEIPLIHFNTPIPRRHTRSAEDDSERDPLNVLKPRARMTPAPASCSQELPSAEDNSPMASDPLGVVRGGRVNTHAGGTGPEGCRPFAKFI
Turning to B1, the “CYP24 RNA production, effect with 1,25-dihydroxyvitamin D3” value in the experiment with CYP24 [9] is “synergizes”.
